Data reported in US4629728A, “Antihypoxemic 5-(4-substituted piperazinyl)alkyl-8-substituted quinolines” (ADIR S.A.R.L., priority 1984, dated 1986).
Like-named read-outs stand apart in the source and are kept apart here.

Experiments:
[1] = survival in acute global hypoxic syndrome due to inhalation of pure azote; assay type: in vivo; conditions: Mus musculus; mice, intraperitoneal route or per os; read-out: average effective dose (ED50) increasing the survival time by 50% in relation to the control animals
Experimental: In the same way, the compounds of general formula I show a protective effect in mice during an acute global hypoxic syndrome due to inhalation of pure azote. The beneficial action is seen at the same doses as for the previous test. The same effective dose relation is found with the reference substances.
The average effective dose (ED50) increasing the survival time by 50% in relation to the control animals is approximately 3 mg/kg when these compounds are administered by intraperitoneal route or per os particularly with the compounds of Examples 38, 40, 51 and 54 described herein after.

[2] = prolongation of life in acute global ischemic syndrome by intravenous injection of magnesium chloride; assay type: in vivo; conditions: mice; for minimal effective dose: Mus musculus
Experimental: The compounds of general formula I are tested by their capacity to prolong the life of mice submitted to an acute global ischemic syndrome by intravenous injection of magnesium chloride.

cortical electrogenesis = test: iterative anoxias test (losses of cortical electrogenesis); assay type: in vivo; conditions: rats, administered intravenously
Experimental: The protective activity vis-a-vis the losses of cortical electrogenesis connected to the ischemic or hypoxic syndrome is evaluated by the iterative anoxias test in rats. […] After the second anoxia, whilst the control animals no longer recuperate their electrocortical activity, the animals treated with the compounds in particular the compounds described in Examples 30, 37, 38, 40 and 54 recover it when they have received by IV perfusion 33 micro g/kg of these. The reference substances only restore it later, at the 120th second for eburnamonine or nicergoline.

[3] = system: mitochondrias of the cerebral cortex; test: oxidative phosphorylation capacity of mitochondrias of the cerebral cortex after an ischemic syndrome; assay type: in vivo, rats; conditions: ischemied rat, reference products
From the text: These same compounds show their pharmacological action vis-a-vis losses of the oxidative phosphorylation capacity of mitochondrias of the cerebral cortex obtained after an ischemic syndrome in rats. […] The same activity is only obtained for the reference products with dihydroergotoxine.

[4] = cerebral oedema by hypoperfusion of 1 hour (ischemic syndrome) or by triethyl tin per os; assay type: in vivo; conditions: reference substances
[5] = ip, intraperitoneal route, MgCl2 i.v., read-out: dose from which life of ischemied mice is significantly prolonged

| Compound | ED50 [1] [mg/kg] | minimal effective dose [2, 5] [mg/kg] | further results |
| --- | --- | --- | --- |
| COc1ccccc1N1CCN(CCc2ccc(O)c3c2CCCN3C)CC1 [Example 51, 1-methyl-5-{2-[4-(2-methoxyphenyl)piperazinyl]ethyl}-8-hydroxy-1,2,3,4-tetrahydro quinoline] | ~3 |  |  |
| dihydroergotoxine |  |  | effective dose per os (inactive up to / no effect below) ([2]; per os, reference substances): > 10 mg/kg; activity in iterative anoxias test compared with the compounds (cortical electrogenesis): comparable activity; activity on mitochondrial oxygen consumption compared with the compounds [3]: same activity |
| COc1ccccc1N1CCN(CCc2ccc(OC)c3c2CCCN3C=O)CC1 [Example 54, 1-formyl-5-{-2-[4-(2-methoxyphenyl)piperazinyl]ethyl}-8-methoxy-1,2,3,4-tetrahydro quinoline] | ~3 | 1 |  |
| CO[C@]12C[C@@H](COC(=O)c3cncc(Br)c3)CN(C)[C@@H]1Cc1cn(C)c3cccc2c13 [nicergoline] |  |  | higher dose needed for equally intense anti-oedema protective activity (relative to the compounds) [4]: 3 times more |
| CC(=O)N1CCCc2c(CCN3CCN(c4ccccn4)CC3)ccc(O)c21 [Example 38, 1-acetyl-5-{2-[4-(2-pyridyl)piperazinyl]ethyl}-8-hydroxy-1,2,3,4-tetrahydro quinoline] | ~3 | 1 |  |
| CC[C@]12CCCN3CCc4c(n(c5ccccc45)[C@@](O)(C(=O)OC)C1)[C@@H]32 [vincamine, reference compound] |  |  | minimal effective dose ([2]; po, per os, reference substances, read-out: effective dose per os (inactive up to / no effect below)): ≥ 100 mg/kg; higher dose needed for equally intense anti-oedema protective activity (relative to the compounds) [4]: 5 times more |
| COc1ccccc1N1CCN(CCc2ccc(OS(C)(=O)=O)c3c2CCCN3)CC1 [Example 30, 5-{2-[4-(2-methoxyphenyl)piperazinyl]ethyl}-8-methylsulfonyloxy-1,2,3,4-tetrahydro quinoline] |  | 1 |  |
| COc1ccccc1N1CCN(CCc2ccc(OC)c3c2CCCN3C(C)=O)CC1 [Example 40, 1-acetyl-5-{2-[4-(2-methoxyphenyl)piperazinyl]ethyl}-8-methoxy-1,2,3,4-tetrahydro quinoline] | ~3 | 1 |  |
